Here are results for 20 molecules from ChEMBL document CHEMBL3351615, “Design, synthesis and evaluation of novel HDAC inhibitors as potential antitumor agents” (Bioorg Med Chem Lett, 2014).

The target in one data set is Histone deacetylase 1 (Homo sapiens, UniProt Q13547). The data set is described as follows: Inhibition of HDAC1 (unknown origin) using Boc-Lys(Ac)-AMC as substrate by fluorescence assay.
Data set [1] is described as follows: cells. It counts as functional. The following applies: Homo sapiens, HCT-116, 72 h.
Description: Growth inhibition of human HCT116 cells after 72 hrs by CellTiter Glo assay
The nature of data set [2]: cells. It counts as functional. The following applies: Homo sapiens, HL-60, 72 h.
Description: Growth inhibition of human HL60 cells after 72 hrs by CellTiter Glo assay
The nature of data set [3]: cells. The data set is classed as functional. Particulars: Homo sapiens, PC-3, 72 h.
Description: Growth inhibition of human PC3 cells after 72 hrs by CellTiter Glo assay
Data set [4] concerns Mus musculus. Kind of data set: Toxicity in human HCT116 cells xenografted mouse at 200 mg/kg, po qd measured after 10 days relative to vehicle-treated control. Particulars: in vivo, 240 h. On the set-up: dose 200 mg/kg, route oral. The data set is classed as organism-based, HCT-116. (In general: Xenograft models place foreign cells or tissue in a host animal.)
The nature of data set [5]: Antitumor activity against human HCT116 cells xenografted in mouse assessed as tumor growth reduction at 50 mg/kg, po qd for 3 weeks relative to vehicle-treated control. The data set is classed as functional. Particulars: HCT-116, 504 h, read-out: TGI.
A further data set has as its target hERG (KCNH2) (Homo sapiens, UniProt Q12809). Kind of data set: Inhibition of human ERG at 10 uM.
The nature of data set [6]: Antitumor activity against human HCT116 cells xenografted in mouse assessed as tumor growth reduction at 200 mg/kg, po qd measured after 10 days relative to vehicle-treated control. The data set is classed as functional. Particulars: HCT-116, 240 h, read-out: TGI.
A further data set deals with HCT-116. The data set is described as follows: Ratio of vorinostat IC50 to compound IC50 for human HCT116 cells after 72 hrs by CellTiter Glo assay. The data set is classed as functional.
Data set [7] relates to Mus musculus. Kind of data set: Toxicity in human HCT116 cells xenografted mouse assessed as body weight loss at 50 mg/kg, po qd as intermittent dosing schedule with 3 days on plus 3 days off for 3 weeks relative to vehicle-treated control. It counts as organism-based, HCT-116. Particulars: in vivo. On the set-up: dose 50 mg/kg, route oral.
The nature of data set [8]: Antitumor activity against human HCT116 cells xenografted in mouse assessed as tumor growth reduction at 75 mg/kg, po qd as intermittent dosing schedule with 3 days on plus 3 days off for 3 weeks relative to vehicle-treated control. The data set is classed as functional. Particulars: HCT-116, read-out: TGI.
For data set [9], the system named is Mus musculus. Kind of data set: Toxicity in human HCT116 cells xenografted mouse assessed as body weight loss at 50 mg/kg, po qd for 3 weeks relative to vehicle-treated control. The data set is classed as organism-based, HCT-116. On the set-up: dose 50 mg/kg, route oral. Particulars: in vivo, 504 h.

Chain of Histone deacetylase 1 (Q13547 whole entry): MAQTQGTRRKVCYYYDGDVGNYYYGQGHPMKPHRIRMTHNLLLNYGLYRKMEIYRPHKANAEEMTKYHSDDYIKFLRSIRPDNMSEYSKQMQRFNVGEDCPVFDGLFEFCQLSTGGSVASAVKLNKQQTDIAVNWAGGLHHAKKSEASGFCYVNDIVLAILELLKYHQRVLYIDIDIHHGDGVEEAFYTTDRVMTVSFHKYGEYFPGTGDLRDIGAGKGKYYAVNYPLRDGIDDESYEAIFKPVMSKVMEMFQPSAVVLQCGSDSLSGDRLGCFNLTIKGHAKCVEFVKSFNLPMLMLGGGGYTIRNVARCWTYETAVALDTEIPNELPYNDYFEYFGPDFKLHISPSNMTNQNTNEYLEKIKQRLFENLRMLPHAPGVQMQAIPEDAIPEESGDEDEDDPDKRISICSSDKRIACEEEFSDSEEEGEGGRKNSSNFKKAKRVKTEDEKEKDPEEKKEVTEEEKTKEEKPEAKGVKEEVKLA
Chain of hERG (KCNH2) (Q12809 whole entry): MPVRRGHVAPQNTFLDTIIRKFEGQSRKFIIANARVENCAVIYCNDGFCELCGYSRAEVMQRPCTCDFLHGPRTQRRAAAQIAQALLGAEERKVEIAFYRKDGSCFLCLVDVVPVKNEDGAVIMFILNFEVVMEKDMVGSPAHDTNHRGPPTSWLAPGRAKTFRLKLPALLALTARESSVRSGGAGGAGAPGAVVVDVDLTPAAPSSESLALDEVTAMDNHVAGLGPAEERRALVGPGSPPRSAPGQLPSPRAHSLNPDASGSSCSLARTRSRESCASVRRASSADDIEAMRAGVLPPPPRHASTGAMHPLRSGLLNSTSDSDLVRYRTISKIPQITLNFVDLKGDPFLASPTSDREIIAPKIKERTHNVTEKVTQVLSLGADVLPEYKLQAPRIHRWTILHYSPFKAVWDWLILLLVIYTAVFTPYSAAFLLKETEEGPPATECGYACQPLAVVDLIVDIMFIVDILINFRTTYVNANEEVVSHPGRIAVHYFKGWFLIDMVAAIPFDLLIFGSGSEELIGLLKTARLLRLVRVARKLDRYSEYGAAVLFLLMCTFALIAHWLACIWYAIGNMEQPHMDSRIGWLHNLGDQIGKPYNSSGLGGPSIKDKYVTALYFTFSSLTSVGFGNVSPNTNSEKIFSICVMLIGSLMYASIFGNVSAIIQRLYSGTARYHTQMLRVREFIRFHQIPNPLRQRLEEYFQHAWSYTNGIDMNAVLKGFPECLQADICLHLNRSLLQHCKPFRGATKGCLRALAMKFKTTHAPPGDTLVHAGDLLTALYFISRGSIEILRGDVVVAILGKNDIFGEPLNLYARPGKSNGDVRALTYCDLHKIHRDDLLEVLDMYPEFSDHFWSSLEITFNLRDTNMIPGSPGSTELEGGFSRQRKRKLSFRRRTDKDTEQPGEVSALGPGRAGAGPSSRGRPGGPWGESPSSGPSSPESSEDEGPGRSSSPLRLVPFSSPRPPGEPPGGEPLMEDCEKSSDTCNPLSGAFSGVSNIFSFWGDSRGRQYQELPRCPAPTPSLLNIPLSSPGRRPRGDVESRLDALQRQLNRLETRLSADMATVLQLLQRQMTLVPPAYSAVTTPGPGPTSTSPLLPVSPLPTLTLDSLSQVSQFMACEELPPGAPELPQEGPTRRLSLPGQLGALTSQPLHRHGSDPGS

For orientation: IC50 means the concentration at which inhibition is half-maximal. Higher therefore signals weaker potency. `CC(C)CN1CCN(c2ccc(C(=O)NO)cc2)C1=O` showed an IC50 on Histone deacetylase 1 of 0.25 µM.

With `O=C(NO)c1ccc(N2CCN(Cc3cccnc3)C2=O)cc1`, the half-inhibitory concentration (IC50) against Histone deacetylase 1 was 0.042 µM.

Broadly, the GI50 is the concentration at which growth is held to half of that of the control. On to `CN(C)c1cccc(CN2CCN(c3ccc(C(=O)NO)cc3)C2=O)c1`, for which the results for the GI50 in “cells [1]”, in the data set “cells [2]” and in “cells [3]” were 0.33 µM, 0.44 µM and 0.43 µM, respectively. This molecule came in with an IC50 against Histone deacetylase 1 of 0.0095 µM.

Molecule `O=C(NO)c1ccc(N2CCN(CCc3ccccc3)C2=O)cc1` came in with a concentration for 50% growth inhibition (GI50) in the data set “cells [1]” of 0.65 µM. In addition, the IC50 on Histone deacetylase 1 amounted to 0.013 µM.

At Histone deacetylase 1, `O=C(NO)c1ccc(N2CCN(c3cccnc3)C2=O)cc1` came in with an IC50 of 0.182 µM.

For `O=C(NO)c1ccc(N2CCN(Cc3ccc4ccccc4c3)C2=O)cc1`, the GI50 in “cells [1]” was found to be 0.21 µM; in “cells [2]” it was 0.36 µM; in the data set “cells [3]”, 0.38 µM. Besides, on Histone deacetylase 1, the midpoint of inhibition, the IC50, lay at 0.0054 µM.

Regarding `CN(C)Cc1cccc(CN2CCN(c3ccc(C(=O)NO)cc3)C2=O)c1`, the IC50 on Histone deacetylase 1 was 0.023 µM. This lies in the double-digit nanomolar range.

For orientation: inhibition means the share of the control response that was lost under treatment. `CCN(CC)Cc1ccc2cc(CN3CCN(c4ccc(C(=O)NO)cc4)C3=O)ccc2c1`: the results for the Activity result in the data set with Mus musculus [4], with Mus musculus [7] and with Mus musculus [9] were “Toxic”, under 15% and under 15%, respectively. The 50% growth inhibitory concentration (GI50) in “cells [1]” was 0.11 µM; in “cells [2]”, 0.086 µM; in “cells [3]” it was 0.1 µM. Further, the inhibition in vivo at 50 mg/kg in data set [5] came out at 45%. The molecule also came in with an inhibition at 10 µM on hERG (KCNH2) of 27%. For the same molecule, the inhibition in vivo at 200 mg/kg in data set [6] came to 50%. Moreover, the “Ratio IC50” value with HCT-116 is given as 6. This molecule also had an IC50 on Histone deacetylase 1 of 0.0027 µM. Also, in data set [8], the inhibition in vivo at 75 mg/kg was found to be 54%.

`O=C(NO)c1ccc(N2CCN(Cc3ccccc3)C2=O)cc1`: in the data set “cells [1]”, the GI50 turned out to be 0.85 µM. Besides, 0.017 µM corresponded to half-maximal inhibition at Histone deacetylase 1 (IC50).

In the case of `O=C(NO)c1ccc(N2CCN(c3cnc4ccccc4c3)C2=O)cc1`, the midpoint of inhibition on Histone deacetylase 1, the IC50, lay at 0.152 µM.

Molecule `O=C(NO)c1ccc(N2CCN(Cc3cccc4ccccc34)C2=O)cc1` registered a half-maximal inhibitory concentration (IC50) against Histone deacetylase 1 of 0.0095 µM.

The molecule `O=C(NO)c1ccc(N2CCN(CCCN3CCCC3)C2=O)cc1` came in with an IC50 on Histone deacetylase 1 of 0.114 µM.

`O=C(NO)c1ccc(N2CCN(Cc3ccc(C(F)(F)F)cc3)C2=O)cc1` yielded a half-maximal inhibitory concentration (IC50) on Histone deacetylase 1 of 0.08 µM.

For the molecule `CN(C)Cc1ccc(CN2CCN(c3ccc(C(=O)NO)cc3)C2=O)cc1`, at Histone deacetylase 1, the IC50 came out at 0.025 µM.

Molecule `O=C(NO)c1ccc(N2CCN(Cc3ccncc3)C2=O)cc1` returned an IC50 against Histone deacetylase 1 of 0.041 µM.

As for `O=C(NO)c1ccc(N2CCN(Cc3ccc(F)cc3)C2=O)cc1`, the half-maximal inhibitory concentration (IC50) against Histone deacetylase 1 turned out to be 0.021 µM.

For the molecule `O=C(NO)c1ccc(N2CCN(Cc3cccc4ncccc34)C2=O)cc1`, the figures for the concentration for 50% growth inhibition (GI50) in the data set “cells [1]”, in “cells [2]” and in the data set “cells [3]” were 0.27 µM, 0.25 µM and 0.34 µM, respectively. Also, at Histone deacetylase 1, the IC50 worked out at 0.0054 µM.

Turning to `COc1ccc(CN2CCN(c3ccc(C(=O)NO)cc3)C2=O)cc1`, growth in the data set “cells [1]” was halved (GI50) at 0.47 µM. The same molecule gave an IC50 at Histone deacetylase 1 of 0.012 µM.

For the molecule `Cn1cc(CCN2CCN(c3ccc(C(=O)NO)cc3)C2=O)c2ccccc21`, the GI50 in the data set “cells [1]” amounted to 0.24 µM; in “cells [2]” it was 0.48 µM; in “cells [3]” it was 0.21 µM. Moreover, inhibition against Histone deacetylase 1 was half-maximal at 0.004 µM (IC50).

In turn, `O=C(NO)c1ccc(N2CCN(CCCN3CCOCC3)C2=O)cc1` had an IC50 at Histone deacetylase 1 of 0.125 µM.
